The results in this text go back to patent US20240150377A1, “MODULATORS OF CYSTIC FIBROSIS TRANSMEMBRANE CONDUCTANCE REGULATOR” (VERTEX PHARMACEUTICALS INCORPORATED, priority 2020, published 2024).

The assay addresses T1, CFTR (Homo sapiens, UniProt P13569, DEL508-508).
T1 construct: endogenous in cells; host or cells: primary human bronchial epithelial cells from CF subjects (F508del/MF-HBE), differentiated at air-liquid interface
Kind of assay: HBE assay: Ussing chamber assay of CFTR-mediated short-circuit currents. Type of assay: cell-based. The following applies: for EC50: read-out: HBE EC50. In a few lines:
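CFTR-mediated Isc (μA/cm²) equals the peak response to apical 20 μM forskolin minus the residual after a 20 μM each BPO/GlyH-101/CFTR inhibitor 172 cocktail, recorded in Ussing chambers at Vhold 0 mV, 37 °C, pH 7.4, with 30 μM apical amiloride. Cells were F508del/MF HBE cultures preincubated 18-24 h with corrector (concentration range or 10 μM) plus 1 μM ivacaftor in 20% human serum.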

The mark [1] stands for this setting: Table 12, read-out: HBE Max Activity (%).
Where [2] appears, read: Table 13, read-out: HBE Max Activity (%).
Setting [3] is: HBE assay, 10 μM, read-out: HBE Activity at 10 μM (%).
The mark [4] stands for this setting: Table 11, read-out: HBE Max Activity (%).
Where [5] appears, read: HBE assay, read-out: HBE Max activity (%).
Setting [6] is: Table 10, read-out: HBE Max activity (%).
Setting [7] is: Table 13, at 10 μM, read-out: HBE Activity at 10 μM (%).
Where [8] appears, read: Table 12, at 10 μM, read-out: HBE Activity at 10 μM (%).

Read-outs that look alike come from different tables or passages of the source.

T1 sequence (P13569 with tags, fused parts or gaps DEL508-508): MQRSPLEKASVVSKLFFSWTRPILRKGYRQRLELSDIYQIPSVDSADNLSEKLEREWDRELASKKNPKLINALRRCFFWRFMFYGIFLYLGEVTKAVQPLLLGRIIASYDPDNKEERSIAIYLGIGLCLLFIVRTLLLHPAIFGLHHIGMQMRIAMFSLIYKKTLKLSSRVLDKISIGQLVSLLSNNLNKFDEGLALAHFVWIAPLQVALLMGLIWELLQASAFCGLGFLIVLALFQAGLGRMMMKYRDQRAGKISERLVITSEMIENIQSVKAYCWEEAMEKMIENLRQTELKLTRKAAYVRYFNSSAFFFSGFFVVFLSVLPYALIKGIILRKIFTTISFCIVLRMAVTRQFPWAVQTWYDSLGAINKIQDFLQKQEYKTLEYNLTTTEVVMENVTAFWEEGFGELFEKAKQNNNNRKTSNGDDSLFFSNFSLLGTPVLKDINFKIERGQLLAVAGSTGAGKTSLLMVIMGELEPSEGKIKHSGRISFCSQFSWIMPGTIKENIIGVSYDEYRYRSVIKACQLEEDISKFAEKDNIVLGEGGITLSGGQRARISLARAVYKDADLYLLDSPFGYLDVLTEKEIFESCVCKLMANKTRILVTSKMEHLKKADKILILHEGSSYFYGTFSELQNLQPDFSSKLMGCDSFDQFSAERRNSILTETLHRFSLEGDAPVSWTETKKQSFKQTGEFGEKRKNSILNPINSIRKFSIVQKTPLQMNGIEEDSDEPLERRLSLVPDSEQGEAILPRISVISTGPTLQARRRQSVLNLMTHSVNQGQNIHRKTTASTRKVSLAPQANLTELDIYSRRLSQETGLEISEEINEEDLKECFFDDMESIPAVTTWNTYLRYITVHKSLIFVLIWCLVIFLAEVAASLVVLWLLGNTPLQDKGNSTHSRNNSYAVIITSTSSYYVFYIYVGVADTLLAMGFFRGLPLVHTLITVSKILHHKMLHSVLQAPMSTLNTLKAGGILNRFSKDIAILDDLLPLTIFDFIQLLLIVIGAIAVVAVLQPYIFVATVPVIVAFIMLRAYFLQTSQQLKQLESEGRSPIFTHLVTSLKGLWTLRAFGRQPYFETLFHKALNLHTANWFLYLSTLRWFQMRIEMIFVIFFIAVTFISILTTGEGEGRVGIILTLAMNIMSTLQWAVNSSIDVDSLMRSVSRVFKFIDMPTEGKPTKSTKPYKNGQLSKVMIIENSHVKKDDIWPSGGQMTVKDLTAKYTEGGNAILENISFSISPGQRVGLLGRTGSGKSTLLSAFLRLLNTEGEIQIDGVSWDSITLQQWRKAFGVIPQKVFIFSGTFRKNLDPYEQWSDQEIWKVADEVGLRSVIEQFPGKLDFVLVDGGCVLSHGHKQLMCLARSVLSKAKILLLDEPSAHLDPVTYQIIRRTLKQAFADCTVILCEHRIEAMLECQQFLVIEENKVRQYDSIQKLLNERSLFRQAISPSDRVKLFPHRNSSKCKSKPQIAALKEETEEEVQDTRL

In the case of `Cc1cccc(C)c1-c1cc2nc(n1)NS(=O)(=O)c1cccc(c1)C(=O)N(Cc1cccc(N3CCCC34CCC4)n1)[C@H](CC(C)(C)C)CO2` [Compound 562], where the note is “Table 12”, the EC50 is less than 1000 nM. The Emax under setting [1] was greater than 60%. For the molecule `Cc1cccc(C)c1-c1cc2nc(n1)NS(=O)(=O)c1cccc(c1)C(=O)N(Cc1ncc(N3CC(C)(C)OC(C)(C)C3)cn1)[C@H](CC(C)(C)C)CO2` [Compound 1145], where the note is “Table 13”, the EC50 was less than 1000 nM. The Emax under setting [2] is greater than 60%. Consider `CCC1(CO)CCCN1c1cccc(CN2C(=O)c3cccc(c3)S(=O)(=O)Nc3nc(cc(-c4c(C)cccc4C)n3)OC[C@H]2CC(C)(C)C)n1` (stereo in doubt) [Compound 1458], for which, under setting [3], the activation at 10 µM was greater than 60%. On to `Cc1cccc(C)c1-c1cc2nc(n1)NS(=O)(=O)c1cccc(c1)C(=O)N(Cc1cccc(C3CCC3)n1)[C@H](CC(C)(C)C)CO2` [Compound 626], for which the EC50 (Table 11) was less than 1000 nM. Also, the Emax under setting [4] is greater than 60%.

Turning to `Cc1cccc(C)c1-c1cc2nc(n1)NS(=O)(=O)c1cccc(c1)C(=O)N(Cc1ncc(N3CC[C@@](C)(O)C3)cn1)[C@H](CC(C)(C)C)CO2` [Compound 542], where the note is “Table 12”, the EC50 was less than 1000 nM. Further, the Emax under setting [1] was greater than 60%. Consider `Cc1cccc(C)c1-c1cc2nc(n1)NS(=O)(=O)c1cccc(c1)C(=O)N(Cc1ncc(N3CC4CC4C3)cn1)[C@H](CC(C)(C)C)CO2` (some centres unmarked) [Compound 717], for which the EC50 (Table 11) was in the range of 1000 to 3000 nM. Also, the Emax under setting [4] is greater than 60%. Take `Cc1cccc(C)c1-c1cc2nc(n1)NS(=O)(=O)c1cccc(c1)C(=O)N(Cc1ncc(OC(C)C)cc1C#N)[C@H](CC(C)(C)C)CO2` [Compound 1351]: the EC50 (HBE assay) is less than 1000 nM. Further, the Emax under setting [5] was greater than 60%. Take `COc1ccc(CN2C(=O)c3cccc(c3)S(=O)(=O)Nc3nc(cc(-c4c(C)cccc4C)n3)OC[C@H]2CC(C)(C)C)cc1` [Compound 770]: the 50% effective concentration (EC50) (Table 10) was less than 1000 nM. The Emax under setting [6] is greater than 60%. On to `COCCN1CCC(CN2C(=O)c3cccc(c3)S(=O)(=O)Nc3nc(cc(-c4c(C)cccc4C)n3)OC[C@H]2CC(C)(C)C)C1=O` (some centres unmarked) [Compound 640], for which the EC50 (Table 11) was less than 1000 nM. `Cc1cccc(C)c1-c1cc2nc(n1)NS(=O)(=O)c1cccc(c1)C(=O)N(Cc1ccc(NCC(C)(C)C)cn1)[C@H](CC(C)(C)C)CO2` [Compound 477]: the Emax under setting [6] was greater than 60%. Take `Cc1cccc(C)c1-c1cc2nc(n1)NS(=O)(=O)c1cccc(c1)C(=O)N(Cc1cncc(N3CCC[C@@H]3C3CCOCC3)n1)[C@H](CC(C)(C)C)CO2` [Compound 1534]: the activation at 10 µM under setting [3] is greater than 60%. Regarding `Cc1cccc(C)c1-c1cc2nc(n1)NS(=O)(=O)c1cccc(c1)C(=O)N(Cc1ncc(OCCOC(C)C)cn1)[C@H](CC(C)(C)C)CO2` [Compound 559], under “Table 12”, the EC50 is less than 1000 nM. The Emax under setting [1] was greater than 60%. On to `Cc1cccc(C)c1-c1cc2nc(n1)NS(=O)(=O)c1cccc(c1)C(=O)N(Cc1ccc(Br)cn1)[C@H](CC(C)(C)C)CO2` [Compound 993], for which the activation at 10 µM under setting [7] was greater than 600%. Regarding `COC1(C)CCN(c2cnc(CN3C(=O)c4cccc(c4)S(=O)(=O)Nc4nc(cc(-c5c(C)cccc5C)n4)OC[C@H]3CC(C)(C)C)nc2)CC1` [Compound 870], the activation at 10 µM under setting [7] is greater than 600%. Besides, the concentration giving a half-maximal response (EC50) (Table 13) was less than 1000 nM. Under setting [2], the Emax is greater than 60%. Take `Cc1cccc(C)c1-c1cc2nc(n1)NS(=O)(=O)c1cccc(c1)C(=O)N(Cc1ncc(OC3CCC3)cn1)[C@H](CC1CCC1)CO2` [Compound 1426]: the EC50 (HBE assay) is less than 1000 nM. Under setting [5], the Emax was greater than 60%. In the same order, the values of `COCCN(c1cccc(CN2C(=O)c3cccc(c3)S(=O)(=O)Nc3nc(cc(-c4c(C)cccc4C)n3)OC[C@H]2CC(C)(C)C)n1)C1CC2(CC2)C1` [Compound 1393] are less than 1000 nM and greater than 60%. Consider `Cc1cccc(C)c1-c1cc2nc(n1)NS(=O)(=O)c1cccc(c1)C(=O)N(Cc1cncc(N(C)C3CCOC3)n1)[C@H](CC(C)(C)C)CO2` (some centres unmarked) [Compound 1349], for which the 50% effective concentration (EC50) (HBE assay) is less than 1000 nM. Also, the Emax under setting [5] is greater than 60%. Consider `Cc1cccc(C)c1-c1cc2nc(n1)NS(=O)(=O)c1cccc(c1)C(=O)N(Cc1ncc(OC(C)C)cn1)[C@H](CC(C)(C)F)CO2` [Compound 1308, (11R)-6-(2,6-Dimethylphenyl)-11-(2-fluoro-2-methyl-propyl)-12-[(5-isopropoxypyrimidin-2-yl)methyl]-2,2-dioxo-9-oxa-2λ^6-thia-3,5,12,19-tetrazatricyclo[12.3.1.14,8]nonadeca-1(18),4(19),5,7,14,16-hexaen-13-one], for which, under setting [3], the activation at 10 µM is greater than 60%. For `COCCOc1cnc(CN2C(=O)c3cccc(c3)S(=O)(=O)Nc3nc(cc(-c4c(C)cccc4C)n3)OC[C@H]2CC(C)(C)C)c(F)c1` [Compound 1364], for the setting “HBE assay”, the EC50 was less than 1000 nM. Moreover, the Emax under setting [5] is greater than 60%. Take `COc1cccc(C)c1-c1cc2nc(n1)NS(=O)(=O)c1cccc(c1)C(=O)N(Cc1cncc(N(C)CC(C)(C)C)n1)[C@H](CC(C)(C)C)CO2` [Compound 544]: under setting [8], the activation at 10 µM is greater than 600%. Turning to `Cc1cccc(C)c1-c1cc2nc(n1)NS(=O)(=O)c1cccc(c1)C(=O)N(Cc1ccc(N3CCC(C(C)(C)C)CC3)cn1)[C@H](CC(C)(C)C)CO2` [Compound 258], under setting [7], the activation at 10 µM was greater than 600%.

`Cc1cccc(C)c1-c1cc2nc(n1)NS(=O)(=O)c1cccc(c1)C(=O)N(Cc1cnc(N3CCC(C)(C)C3)nc1)[C@H](CC(C)(C)C)CO2` [Compound 272]: the concentration for a half-maximal effect (EC50) (Table 12) was less than 1000 nM. In addition, the Emax under setting [1] is greater than 60%. As to `Cc1cccc(C)c1-c1cc2nc(n1)NS(=O)(=O)c1cccc(c1)C(=O)N(Cc1cccc(N(C)C3CCCC3)n1)[C@H](CC(C)(C)C)CO2` [Compound 1355], the EC50 (HBE assay) is less than 1000 nM. Moreover, under setting [5], the Emax is greater than 60%.

For the molecule `Cc1cccc(C)c1-c1cc2nc(n1)NS(=O)(=O)c1cccc(c1)C(=O)N(Cc1cncc(N(C)CC(C)(C)C)c1)[C@H](CC(C)(C)C)CO2` [Compound 281], the activation at 10 µM under setting [8] was greater than 600%. In the case of `Cc1cccc(C)c1-c1cc2nc(n1)NS(=O)(=O)c1cccc(c1)C(=O)N(Cc1nccc(N(C)CC(C)(C)C)n1)[C@H](CC(C)(C)C)CO2` [Compound 650], the EC50 (Table 11) was less than 1000 nM. Moreover, the Emax under setting [4] was greater than 60%. `Cc1cccc(C)c1-c1cc2nc(n1)NS(=O)(=O)c1cccc(c1)C(=O)N(Cc1ccc(C3CCCCC3)cc1)[C@H](CC(C)(C)C)CO2` [Compound 495]: the EC50 (Table 10) was in the range of 1000 to 3000 nM. In addition, the Emax under setting [6] was greater than 60%.

Turning to `COC(C)(C)CN(C)c1cncc(CN2C(=O)c3cccc(c3)S(=O)(=O)Nc3nc(cc(-c4c(C)cccc4C)n3)OC[C@H]2CC(C)(C)C)n1` [Compound 1491], the EC50 (HBE assay) was less than 1000 nM. In addition, under setting [5], the Emax was greater than 60%. Regarding `Cc1cccc(C)c1-c1cc2nc(n1)NS(=O)(=O)c1cccc(c1)C(=O)N(Cc1nccc(C(C)C)n1)[C@H](CC(C)(C)C)CO2` [Compound 121, (11R)-6-(2,6-Dimethylphenyl)-11-(2,2-dimethylpropyl)-12-[(4-isopropylpyrimidin-2-yl)methyl]-2,2-dioxo-9-oxa-2λ^6-thia-3,5,12,19-tetrazatricyclo[12.3.1.14,8]nonadeca-1(18),4(19),5,7,14,16-hexaen-13-one], under “Table 11”, the EC50 was less than 1000 nM. Moreover, the Emax under setting [4] was greater than 60%. For `Cc1ccc(N2CCCC2C)nc1CN1C(=O)c2cccc(c2)S(=O)(=O)Nc2nc(cc(-c3c(C)cccc3C)n2)OC[C@H]1CC(C)(C)C` (stereo in doubt) [Compound 1346], where the note is “HBE assay”, the EC50 was less than 1000 nM. Further, under setting [5], the Emax was greater than 60%. Turning to `COCCCN(c1cccc(CN2C(=O)c3cccc(c3)S(=O)(=O)Nc3nc(cc(-c4c(C)cccc4C)n3)OC[C@H]2CC(C)(C)C)n1)C(C)C` [Compound 1136], under “Table 13”, the EC50 was less than 1000 nM. Moreover, under setting [2], the Emax is greater than 60%. As for `Cc1cccc(C)c1-c1cc2nc(n1)NS(=O)(=O)c1cccc(c1)C(=O)N(Cc1cccc(N3CCCC3C(C)(C)O)n1)[C@H](CC(C)(C)C)CO2` (some centres unmarked) [Compound 1123], the activation at 10 µM under setting [7] was greater than 600%. `Cc1cccc(C)c1-c1cc2nc(n1)NS(=O)(=O)c1cccc(c1)C(=O)N(Cc1ncc(N(C)C)cn1)[C@H](CC(C)(C)C)CO2` [Compound 1072]: the Emax under setting [6] was greater than 60%. With `Cc1cccc(C)c1-c1cc2nc(n1)NS(=O)(=O)c1cccc(c1)C(=O)N(CC(=O)N1CCC(c3ccccc3)C1)[C@H](CC(C)(C)C)CO2` (some centres unmarked) [Compound 191], the activation at 10 µM under setting [7] is greater than 600%. `Cc1cccc(C)c1-c1cc2nc(n1)NS(=O)(=O)c1cccc(c1)C(=O)N(C(C)c1ccc(-c3c(C)n[nH]c3C)cc1)[C@H](CC(C)(C)C)CO2` (some centres unmarked) [Compound 294]: the activation at 10 µM (Table 10, at 10 μM, read-out: HBE activity at 10 (μM) (%)) was greater than 60%. On to `Cc1cccc(C)c1-c1cc2nc(n1)NS(=O)(=O)c1cccc(c1)C(=O)N(Cc1ncc(OC3CCC3)cc1F)[C@H](CC1CC1)CO2` [Compound 1468], for which the EC50 (HBE assay) was less than 1000 nM. For the same molecule, under setting [5], the Emax is greater than 60%. For `Cc1cccc(C)c1-c1cc2nc(n1)NS(=O)(=O)c1cccc(c1)C(=O)N(Cc1ncc(N3CCC(F)(F)CC3)cn1)[C@H](CC(C)(C)C)CO2` [Compound 1443], the activation at 10 µM under setting [3] was greater than 60%. For `CCOc1cnc(CN2C(=O)c3cccc(c3)S(=O)(=O)Nc3nc(cc(-c4c(C)cccc4C)n3)OC[C@H]2CC2(C(F)(F)F)CC2)nc1` [Compound 1490], the EC50 (HBE assay) is less than 1000 nM. In addition, under setting [5], the Emax is greater than 60%. Regarding `Cc1cccc(C)c1-c1cc2nc(n1)NS(=O)(=O)c1cccc(c1)C(=O)N(Cc1ncc(Br)cc1C(F)(F)F)[C@H](CC(C)(C)C)CO2` [Compound 1119], the activation at 10 µM under setting [7] is greater than 600%.
